Test results: patent publication US12466846B2, “Siloxane derivatives of amino acids having surface-active properties” (AdvanSix Resins & Chemicals LLC, priority 2022, dated 2025)

Assay: Critical micelle concentration and minimum surface tension from surface tension versus concentration in water, Wilhelmy plate method
Format: physicochemical
Conditions: for plateau value of minimum surface tension that can be reached: in water, Wilhelmy plate, 23° C.; for interfacial / surfactant activity (in words): judged from the plateau minimum surface tension and CMC in water
Excerpt: These properties may be measured and described by various methods. One method by which surfactants may be described is by the molecule's critical micelle concentration (CMC). CMC may be defined as the concentration of a surfactant at which micelles form, and above which all additional surfactant is incorporated into micelles.
As surfactant concentration increases, surface tension decreases. Once the surface is completely overlaid with surfactant molecules, micelles begin to form. This point represents the CMC, as well as the minimum surface tension. Further addition of surfactant will not further affect the surface tension. CMC may therefore be measured by observing the change in surface tension as a function of surfactant concentration. One such method for measuring this value is the Wilhemy plate method. A Wilhelmy plate is usually a thin iridium-platinum plate attached to a balance by a wire and placed perpendicularly to the air-liquid interface. The balance is used to measure the force exerted on the plate by wetting. This value is then used to calculate the surface tension (γ) according to Equation 1: γ=F/l cos θ: Equation 1 wherein I is equal to the wetted perimeter (2w+2d, in which w and d are the plate thickness and width, respectively) and cos θ, the contact angle between the liquid and the plate, is assumed to be […] in the absence of an extant literature value.
Nuclear magnetic resonance (NMR) spectroscopy was performed on a Bruker 500 MHz spectrometer. The critical micelle concentration (CMC) was determined by the Wilhelmy plate method at 23° C. with a tensiometer (DCAT 11, DataPhysics Instruments GmbH) equipped with a Pt—Ir plate. Dynamic surface tension was determined with a bubble pressure tensiometer (Krüss BP100, Krüss GmbH), at 23° C. Contact angle was determined with the optical contact angle goniometer (OCA 15 Pro, DataPhysics GmbH) equipped with a digital camera.

Compound: C[N+](C)(CCCCCC(=O)NCCC[Si](O[Si](C)(C)C)(O[Si](C)(C)C)O[Si](C)(C)C)Cc1ccccc1 [Surfactant 1, N-benzyl-6-((3-(1,1,1,5,5,5-hexamethyl-3-((trimethylsilyl)oxy)trisiloxan-3-yl)propyl)amino)-N,N-dimethyl-6-oxohexan-1-aminium bromide]
- plateau value of minimum surface tension that can be reached: around 20.67 mN/m
- interfacial / surfactant activity (in words): outstanding interfacial activity

Compound: CCOC(=O)C[N+](C)(C)CCCCCC(=O)NCCC[Si](O[Si](C)(C)C)(O[Si](C)(C)C)O[Si](C)(C)C [Surfactant 2, N-(2-ethoxy-2-oxoethyl)-6-((3-(1,1,1,5,5,5-hexamethyl-3-((trimethylsilyl)oxy)trisiloxan-3-yl)propyl)amino)-N,N-dimethyl-6-oxohexan-1-aminium bromide]
- plateau value of minimum surface tension that can be reached: around 20.36 mN/m
- interfacial / surfactant activity (in words): outstanding interfacial activity

Compound: C=CC[N+](C)(C)CCCCCC(=O)NCCC[Si](O[Si](C)(C)C)(O[Si](C)(C)C)O[Si](C)(C)C [Surfactant 3, N-allyl-6-((3-(1,1,1,5,5,5-hexamethyl-3-((trimethylsilyl)oxy)trisiloxan-3-yl)propyl)amino)-N,N-dimethyl-6-oxohexan-1-aminium iodide]
- plateau value of minimum surface tension that can be reached: about 20.67 mN/m
- interfacial / surfactant activity (in words): outstanding interfacial activity

Compound: C#CC[N+](C)(C)CCCCCC(=O)NCCC[Si](O[Si](C)(C)C)(O[Si](C)(C)C)O[Si](C)(C)C [Surfactant 4, 6-((3-(1,1,1,5,5,5-hexamethyl-3-((trimethylsilyl)oxy)trisiloxan-3-yl)propyl)amino)-N,N-dimethyl-6-oxo-N-(prop-2-yn-1-yl)hexan-1-aminium bromide]
- plateau value of minimum surface tension that can be reached: about 20.54 mN/m
- interfacial / surfactant activity (in words): outstanding interfacial activity

Compound: COCCOCC[N+](C)(C)CCCCCC(=O)NCCC[Si](O[Si](C)(C)C)(O[Si](C)(C)C)O[Si](C)(C)C [Surfactant 5, 6-((3-(1,1,1,5,5,5-hexamethyl-3-((trimethylsilyl)oxy)trisiloxan-3-yl)propyl)amino)-N-(2-(2-methoxyethoxy)ethyl)-N,N-dimethyl-6-oxohexan-1-aminium bromide]
- plateau value of minimum surface tension that can be reached: about 20.40 mN/m
- interfacial / surfactant activity (in words): outstanding interfacial activity

Compound: CCOP(=O)(CCC[N+](C)(C)CCCCCC(=O)NCCC[Si](O[Si](C)(C)C)(O[Si](C)(C)C)O[Si](C)(C)C)OCC [Surfactant 6, N-(3-(diethoxyphosphoryl)propyl)-6-((3-(1,1,1,5,5,5-hexamethyl-3-((trimethylsilyl)oxy)trisiloxan-3-yl)propyl)amino)-N,N-dimethyl-6-oxohexan-1-aminium bromide]
- plateau value of minimum surface tension that can be reached: about 20.48 mN/m
- interfacial / surfactant activity (in words): outstanding interfacial activity

Compound: C[N+](C)(CCCO)CCCCCC(=O)NCCC[Si](O[Si](C)(C)C)(O[Si](C)(C)C)O[Si](C)(C)C [Surfactant 7, 6-((3-(1,1,1,5,5,5-hexamethyl-3-((trimethylsilyl)oxy)trisiloxan-3-yl)propyl)amino)-N-(3-hydroxypropyl)-N,N-dimethyl-6-oxohexan-1-aminium iodide]
- plateau value of minimum surface tension that can be reached: about 20.61 mN/m
- interfacial / surfactant activity (in words): outstanding interfacial activity

Compound: C[N+](C)(CCO)CCCCCC(=O)NCCC[Si](O[Si](C)(C)C)(O[Si](C)(C)C)O[Si](C)(C)C [Surfactant 8, 6-((3-(1,1,1,5,5,5-hexamethyl-3-((trimethylsilyl)oxy)trisiloxan-3-yl)propyl)amino)-N-(2-hydroxyethyl)-N,N-dimethyl-6-oxohexan-1-aminium iodide]
- plateau value of minimum surface tension that can be reached: about 20.41 mN/m
- interfacial / surfactant activity (in words): outstanding interfacial activity

Compound: C[N+](C)(CCCCCC(=O)O)CCCCCC(=O)NCCC[Si](O[Si](C)(C)C)(O[Si](C)(C)C)O[Si](C)(C)C [Surfactant 9a, N-(5-carboxypentyl)-6-((3-(1,1,1,5,5,5-hexamethyl-3-((trimethylsilyl)oxy)trisiloxan-3-yl)propyl)amino)-N,N-dimethyl-6-oxohexan-1-aminium bromide]
- plateau value of minimum surface tension that can be reached: about 20.52 mN/m

Compound: C[N+](C)(CCCCCC(=O)NCCC[Si](O[Si](C)(C)C)(O[Si](C)(C)C)O[Si](C)(C)C)CC(=O)O [Surfactant 9b, N-(carboxymethyl)-6-((3-(1,1,1,5,5,5-hexamethyl-3-((trimethylsilyl)oxy)trisiloxan-3-yl)propyl)amino)-N,N-dimethyl-6-oxohexan-1-aminium bromide]
- plateau value of minimum surface tension that can be reached: about 29.16 mN/m
- interfacial / surfactant activity (in words): excellent activity

Compound: C[N+](C)(CCCCCC(=O)NCCC[Si](O[Si](C)(C)C)(O[Si](C)(C)C)O[Si](C)(C)C)CCC[N+](C)(C)CCCCCC(=O)NCCC[Si](O[Si](C)(C)C)(O[Si](C)(C)C)O[Si](C)(C)C [Surfactant 10, N^1,N^3-bis(6-((3-(1,1,1,5,5,5-hexamethyl-3-((trimethylsilyl)oxy)trisiloxan-3-yl)propyl)amino)-6-oxohexyl)-N^1,N^1,N^3,N^3-tetramethylpropane-1,3-diaminium dibromide]
- plateau value of minimum surface tension that can be reached: about 22.12 mN/m
- interfacial / surfactant activity (in words): interfacial activity
